Consider six molecules from PMC8338929, “Acetylation turns leucine into a drug by membrane transporter switching” (Scientific Reports, 2021).

For data set [1], the target named is T1, human MCT1 (SLC16A1) (Homo sapiens, UniProt P53985).
T1 construct: host or cells: MDCK-II
T1 sequence (P53985 1-500): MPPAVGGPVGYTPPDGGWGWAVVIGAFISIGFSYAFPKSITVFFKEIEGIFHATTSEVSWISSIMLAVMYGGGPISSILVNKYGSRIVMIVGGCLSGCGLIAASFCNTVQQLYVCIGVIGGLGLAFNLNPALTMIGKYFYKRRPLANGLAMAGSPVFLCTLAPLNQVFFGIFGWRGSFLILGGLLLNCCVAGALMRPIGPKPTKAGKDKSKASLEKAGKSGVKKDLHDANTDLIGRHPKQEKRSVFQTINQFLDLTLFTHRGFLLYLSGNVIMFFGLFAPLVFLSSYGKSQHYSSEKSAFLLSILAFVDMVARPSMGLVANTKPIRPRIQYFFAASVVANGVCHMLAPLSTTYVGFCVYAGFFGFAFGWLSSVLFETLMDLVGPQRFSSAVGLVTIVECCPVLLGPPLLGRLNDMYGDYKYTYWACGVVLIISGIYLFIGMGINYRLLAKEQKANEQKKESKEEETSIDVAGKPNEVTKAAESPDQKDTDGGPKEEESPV
As to the kind of experiment: MCT1-mediated cellular uptake in transfected MDCK-II cells. It counts as cell-based. Particulars: 1 min, room temperature, Michaelis-Menten fit. How it is done: (§1) Transport studies with human PepT1 (SLC15A1), LAT1 (SLC7A5) and MCT1 (SLC16A1) were conducted in MDCK-II cells expressing the human transporter or control cells expressing a vector with Green Fluorescence Protein. Cells were transfected using a proprietary, transient transfection system (OPTI-EXPRESSION Technology, BioIVT). The results from the control cells were used to correct for substrate permeation by routes other than the transporter being investigated in the study. […] Specifically, Net Transporter Mediated Substrate Uptake (pmol/min/cm^2) = (Cellular accumulation in the presence of the transporter) − (Mean cellular accumulation in the absence of the transporter). MDCK-II cells were maintained in DMEM with low glucose and 10% FBS. Cells were used at passages up to 40 were seeded at 60,000 ± 10,000 cells/well on 96-well plates approximately 24 h before transfection, and transport assays were performed approximately 48 h after transfection. Transport studies in MDCK-II cells were conducted in 96-well insert plates with permeable membrane (0.4 µm) and receiver tray (Millipore MultiScreen Filter 96-well).
(§2) Transport studies with PepT1 were conducted in 96-well cell culture plate with wells containing a monolayer of MDCK-II cells grown on a permeable support and a corresponding 96-well receiver tray. Cell plates are maintained at 37 °C in 5% CO2 atmosphere prior to initiation of the transport experiment. Pre-incubation was conducted in HBSS, pH 7.4. The transport experiments were conducted in HBSS with Bis–Tris, pH 5.5, without phenol red. Both pre-incubation and incubation were conducted at 37 °C. All final assay solutions of probe substrate, reference inhibitor or test article contain 0.5% (v/v) DMSO (vehicle control). The culture plate insert […] was washed with warm HBSS three times and then blotted dry. The culture plate wells […] were washed with warm HBSS three times. […] Then a 30-µL sample was taken and mixed with 200 µL of scintillation fluid and scintillation counted (1450 Microbeta, Perkin-Elmer). […]

Data set [2] has as its target T1, human MCT1 (SLC16A1). Briefly: Inhibition of MCT1 uptake of probe substrate 2-thiophene glyoxylate in MDCK-II cells. The format is cell-based. How it is done:
as §1
as §2, with “times. 100 µL of 37 °C HBSS pH 7.4 pre-incubation buffer to the apical compartment as follows: for the probe substrate transport assay, the HBSS contains vehicle; for the reference inhibition assay, the HBSS contains the reference inhibitor at the required concentration; for the test article assays, the HBSS in each well contains test compound at the specified concentration. The plates were incubated at 37 °C with orbital shaking at approximately 60 rpm for the pre-incubation (30 min), aspirated and then 100 µL of the experimental buffer was added.” for “times.”

Data set [3] can be described thus: N-acetyl-leucine metabolism in pooled human liver S9 fraction (LC-MS). Particulars: 1 µM initial concentration, 0-60 min. It counts as in vitro ADME.
A short description of data set [4]: N-acetyl-leucine metabolism in pooled mouse liver S9 fraction (LC-MS). It counts as in vitro ADME. The settings on record: 1 µM initial concentration, 0-60 min.
The test system of a further data set is LAT1. Particulars: read-out: Km LAT1; quoted in discussion, no reference given; cited from earlier work.
Substrate in data set [5]: CC(=O)N[C@@H](CC(C)C)C(=O)O
Briefly: cells, lysate or membranes. The settings on record: Michaelis-Menten fit.

One may read the Km as the substrate concentration at which the rate is half of its maximum. One may read the Ki as the dissociation constant of the complex between target and ligand, obtained from inhibition or displacement. As a reminder, the IC50 is the concentration at which inhibition is half-maximal. In the case of `CC(=O)N[C@H](CC(C)C)C(=O)O` [N-acetyl-D-leucine], on human MCT1 (SLC16A1) [1], the Km amounted to 1000 µM and the “Vmax MCT1 uptake” value is listed as 80. Besides, on human MCT1 (SLC16A1) [2] (Cheng-Prusoff equation from IC50, competitive inhibition assumed, read-out: affinity (Ki) MCT1), the Ki is 1.6 mM. This molecule displayed an IC50 against human MCT1 (SLC16A1) [2] (probe 2-thiophene glyoxylate 500 µM, positive control phloretin 500 µM) of 11 mM.

Take `[2H]C([2H])([2H])C([2H])(C([2H])([2H])[2H])C([2H])([2H])C([2H])(NC(C)=O)C(=O)O` (racemic) [N-acetyl-DL-[^2H10]leucine]: in data set [3], the “disappearance: asymptote as % of the initial concentration, human liver S9” value was approximately 50%. The “disappearance: asymptote as % of the initial concentration, mouse liver S9” value in data set [4] is on record as approximately 50%.

On to `CC(C)C[C@H](N)C(=O)O` [L-leucine], for which the Km in the data set with LAT1 was 200 µM.

B1: Human OAT3 (SLC22A8) (Homo sapiens) (protein)
chain: MTFSEILDRVGSMGHFQFLHVAILGLPILNMANHNLLQIFTAATPVHHCRPPHNASTGPWVLPMGPNGKPERCLRFVHPPNASLPNDTQRAMEPCLDGWVYNSTKDSIVTEWDLVCNSNKLKEMAQSIFMAGILIGGLVLGDLSDRFGRRPILTCSYLLLAASGSGAAFSPTFPIYMVFRFLCGFGISGITLSTVILNVEWVPTRMRAIMSTALGYCYTFGQFILPGLAYAIPQWRWLQLTVSIPFFVFFLSSWWTPESIRWLVLSGKSSKALKILRRVAVFNGKKEEGERLSLEELKLNLQKEISLAKAKYTASDLFRIPMLRRMTFCLSLAWFATGFAYYSLAMGVEEFGVNLYILQIIFGGVDVPAKFITILSLSYLGRHTTQAAALLLAGGAILALTFVPLDLQTVRTVLAVFGKGCLSSSFSCLFLYTSELYPTVIRQTGMGVSNLWTRVGSMVSPLVKITGEVQPFIPNIIYGITALLGGSAALFLPETLNQPLPETIEDLENWSLRAKKPKQEPEVEKASQRIPLQPHGPGLGSS
Take B1: the Km in data set [5] (other: HEK-293 cells, pH 7.4) is 7800 µM.

B2: Human OAT1 (SLC22A6) (Homo sapiens) (protein)
chain: MAFNDLLQQVGGVGRFQQIQVTLVVLPLLLMASHNTLQNFTAAIPTHHCRPPADANLSKNGGLEVWLPRDRQGQPESCLRFTSPQWGLPFLNGTEANGTGATEPCTDGWIYDNSTFPSTIVTEWDLVCSHRALRQLAQSLYMVGVLLGAMVFGYLADRLGRRKVLILNYLQTAVSGTCAAFAPNFPIYCAFRLLSGMALAGISLNCMTLNVEWMPIHTRACVGTLIGYVYSLGQFLLAGVAYAVPHWRHLQLLVSAPFFAFFIYSWFFIESARWHSSSGRLDLTLRALQRVARINGKREEGAKLSMEVLRASLQKELTMGKGQASAMELLRCPTLRHLFLCLSMLWFATSFAYYGLVMDLQGFGVSIYLIQVIFGAVDLPAKLVGFLVINSLGRRPAQMAALLLAGICILLNGVIPQDQSIVRTSLAVLGKGCLAASFNCIFLYTGELYPTMIRQTGMGMGSTMARVGSIVSPLVSMTAELYPSMPLFIYGAVPVAASAVTVLLPETLGQPLPDTVQDLESRWAPTQKEAGIYPRKGKQTRQQQEHQKYMVPLQASAQEKNGL
For B2, the Km in data set [5] (other: HEK-293 cells, pH 7.4) is 11000 µM.

B3: human MCT1 (SLC16A1) (Homo sapiens) (protein)
chain: MPPAVGGPVGYTPPDGGWGWAVVIGAFISIGFSYAFPKSITVFFKEIEGIFHATTSEVSWISSIMLAVMYGGGPISSILVNKYGSRIVMIVGGCLSGCGLIAASFCNTVQQLYVCIGVIGGLGLAFNLNPALTMIGKYFYKRRPLANGLAMAGSPVFLCTLAPLNQVFFGIFGWRGSFLILGGLLLNCCVAGALMRPIGPKPTKAGKDKSKASLEKAGKSGVKKDLHDANTDLIGRHPKQEKRSVFQTINQFLDLTLFTHRGFLLYLSGNVIMFFGLFAPLVFLSSYGKSQHYSSEKSAFLLSILAFVDMVARPSMGLVANTKPIRPRIQYFFAASVVANGVCHMLAPLSTTYVGFCVYAGFFGFAFGWLSSVLFETLMDLVGPQRFSSAVGLVTIVECCPVLLGPPLLGRLNDMYGDYKYTYWACGVVLIISGIYLFIGMGINYRLLAKEQKANEQKKESKEEETSIDVAGKPNEVTKAAESPDQKDTDGGPKEEESPV
With B3, the Km in data set [5] (other: MDCK-II cells, 1 min, room temperature) amounted to 3000 µM.
